Measured values: ChEMBL document CHEMBL1201862, “PubChem BioAssay data set” (2004)
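48-hour exposure; five concentrations; linearly interpolated endpoints. At the GI50, growth is halved.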 Activity calls are given as the source filed them. No stated cut-off is given here; in the data, active = GI50 up to about 1.1 µM and inactive = higher.

Legend:
Assay in all cases: DTP human tumour cell line panel, 48 h
SK-MEL-2 = test system: SK-MEL-2
SF-268 = test system: SF-268
CAKI-1 = test system: CAKI-1
SK-OV-3 = test system: SK-OV-3
HT-29 = test system: HT-29
CCRF-CEM = test system: CCRF-CEM
MOLT-4 = test system: MOLT-4
LOX IMVI = test system: LOX IMVI
SK-MEL-28 = test system: SK-MEL-28
OVCAR-8 = test system: OVCAR-8
OVCAR-5 = test system: OVCAR-5
NCI/ADR-RES = test system: NCI/ADR-RES
M14 = test system: M14
KM12 = test system: KM12
SNB-19 = test system: SNB-19
NCI-H226 = test system: NCI-H226
EKVX = test system: EKVX
HOP-62 = test system: HOP-62
SR = test system: SR
RXF 393 = test system: RXF 393

Compound	GI50 (SK-MEL-2)	GI50 (SF-268)	GI50 (CAKI-1)	GI50 (SK-OV-3)	GI50 (HT-29)	GI50 (CCRF-CEM)	GI50 (MOLT-4)	GI50 (LOX IMVI)	GI50 (SK-MEL-28)	GI50 (OVCAR-8)	GI50 (OVCAR-5)	GI50 (NCI/ADR-RES)	GI50 (M14)	GI50 (KM12)	GI50 (SNB-19)	GI50 (NCI-H226)	GI50 (EKVX)	GI50 (HOP-62)	GI50 (SR)	GI50 (RXF 393)
CNC(=O)CNC(=O)CCC(=O)N(C)C	> 100 µM (inactive)	> 100 µM (inactive)	> 100 µM (inactive)	> 100 µM (inactive)	> 100 µM (inactive)	> 100 µM (inactive)	> 100 µM (inactive)	> 100 µM (inactive)	> 100 µM (inactive)	> 100 µM (inactive)	> 100 µM (inactive)	> 100 µM (inactive)	> 100 µM (inactive)	> 100 µM (inactive)	> 100 µM (inactive)	> 100 µM (inactive)	> 100 µM (inactive)	> 100 µM (inactive)		
O=c1ccc2nc3cc(Br)ccc3sc-2c1	> 100 µM (inactive)	> 100 µM (inactive)	32.3 µM (inactive)	> 100 µM (inactive)	> 100 µM (inactive)	12.9 µM (inactive)	21.7 µM (inactive)		> 100 µM (inactive)		> 100 µM (inactive)		> 100 µM (inactive)	> 100 µM (inactive)	> 100 µM (inactive)	> 100 µM (inactive)	> 100 µM (inactive)	> 100 µM (inactive)	33 µM (inactive)	
CSc1nc(Cl)c2c(n1)Sc1ncnn1C2O (stereo not given)	17.4 µM (inactive)	6.61 µM (inactive)	12.7 µM (inactive)	27.3 µM (inactive)	12.9 µM (inactive)	1.56 µM (inactive)	6.7 µM (inactive)	6.37 µM (inactive)	29.2 µM (inactive)	2.82 µM (inactive)	17.7 µM (inactive)	25.9 µM (inactive)	14.3 µM (inactive)		28 µM (inactive)		17.2 µM (inactive)	21.8 µM (inactive)	2.86 µM (inactive)	2.58 µM (inactive)
COC1CCC(O)C(CO)O1 (stereo not given)	> 100 µM (inactive)			> 100 µM (inactive)	> 100 µM (inactive)	10.9 µM (inactive)	27.6 µM (inactive)	23.3 µM (inactive)	> 100 µM (inactive)	> 100 µM (inactive)	> 100 µM (inactive)		43.2 µM (inactive)	> 100 µM (inactive)			> 100 µM (inactive)	> 100 µM (inactive)	45.3 µM (inactive)	> 100 µM (inactive)
c1ccc2c(c1)SP1Sc3ccccc3P21 (stereo not given)	> 80.7 µM (inactive)	> 95.3 µM (inactive)		> 100 µM (inactive)	74.6 µM (inactive)	> 87.1 µM (inactive)	> 100 µM (inactive)	> 83.6 µM (inactive)	> 90.4 µM (inactive)	> 89.3 µM (inactive)	> 100 µM (inactive)	> 100 µM (inactive)		> 100 µM (inactive)	> 28.2 µM (inactive)	> 45.7 µM (inactive)	> 100 µM (inactive)	> 100 µM (inactive)		52.7 µM (inactive)
COc1cc(C2c3cc4c(cc3[C@@H](Nc3ccc5c(c3)OCO5)C3COC(=O)[C@H]23)OCO4)cc(OC)c1O (stereo not given in full)	2.4 µM (inactive)	0.953 µM (active)	0.152 µM (active)	1.25 µM (inactive)	1.24 µM (inactive)	0.0641 µM (active)	< 0.0136 µM (active)	0.456 µM (active)	3.43 µM (inactive)	1.38 µM (inactive)	2.74 µM (inactive)	0.482 µM (active)		1.79 µM (inactive)	0.299 µM (active)	0.217 µM (active)	2.45 µM (inactive)	0.177 µM (active)		1.09 µM (active)
Cc1cccc(C(C)C)c1NC(=O)CC1Sc2ccccc2NC1=O (stereo not given)	42.5 µM (inactive)	63 µM (inactive)	> 100 µM (inactive)	> 100 µM (inactive)	48.9 µM (inactive)	> 100 µM (inactive)	20.5 µM (inactive)	94.4 µM (inactive)	83.6 µM (inactive)	> 100 µM (inactive)	> 100 µM (inactive)		50.1 µM (inactive)	> 100 µM (inactive)	> 100 µM (inactive)	77.8 µM (inactive)	> 100 µM (inactive)	> 100 µM (inactive)	41 µM (inactive)	87.3 µM (inactive)
CC1=C(C)SC(=C2Sc3c(n(C)c(=O)[nH]c3=O)S2)S1	> 100 µM (inactive)	> 100 µM (inactive)	> 100 µM (inactive)	> 100 µM (inactive)	> 100 µM (inactive)	> 100 µM (inactive)	> 100 µM (inactive)	> 100 µM (inactive)	> 100 µM (inactive)	> 100 µM (inactive)	> 100 µM (inactive)	> 100 µM (inactive)	> 100 µM (inactive)	> 100 µM (inactive)	> 100 µM (inactive)	> 100 µM (inactive)	> 100 µM (inactive)	> 100 µM (inactive)		> 100 µM (inactive)
O=C(CCC1C(=O)NC(=S)NC1=O)c1ccc2ccccc2c1	> 100 µM (inactive)	> 100 µM (inactive)	> 100 µM (inactive)	> 100 µM (inactive)	> 100 µM (inactive)	> 100 µM (inactive)	> 100 µM (inactive)	> 100 µM (inactive)	> 100 µM (inactive)	> 100 µM (inactive)	> 100 µM (inactive)		> 100 µM (inactive)	> 100 µM (inactive)	> 100 µM (inactive)	> 100 µM (inactive)	> 100 µM (inactive)	> 100 µM (inactive)	> 100 µM (inactive)	> 100 µM (inactive)
Cc1ccc2c(c1)C(=O)N(N(C)C)CC(=O)N2	> 100 µM (inactive)	> 100 µM (inactive)	> 100 µM (inactive)	> 100 µM (inactive)	> 100 µM (inactive)	> 100 µM (inactive)	> 100 µM (inactive)	> 100 µM (inactive)	> 100 µM (inactive)	> 100 µM (inactive)	> 100 µM (inactive)		> 100 µM (inactive)	> 100 µM (inactive)	> 100 µM (inactive)	> 100 µM (inactive)	> 100 µM (inactive)	> 100 µM (inactive)	> 100 µM (inactive)	
COc1ccc(C2CC(c3c(O)ccc4ccccc34)=NN2)cc1OC (stereo not given)	6 µM (inactive)	2.87 µM (inactive)	4.9 µM (inactive)	7.94 µM (inactive)	1.89 µM (inactive)	4.85 µM (inactive)	2.24 µM (inactive)		5.16 µM (inactive)	2.98 µM (inactive)	3.9 µM (inactive)	2.62 µM (inactive)	4.1 µM (inactive)	3.52 µM (inactive)	2.1 µM (inactive)	2.54 µM (inactive)	6.01 µM (inactive)	3.86 µM (inactive)		7.6 µM (inactive)
CC(C)C[C@@H](NC(=O)[C@@H](Cc1cccc2ccccc12)NC(=O)N1CCOCC1)B(O)O	37 µM (inactive)	61.5 µM (inactive)	72.8 µM (inactive)		59.4 µM (inactive)		31.5 µM (inactive)	54.6 µM (inactive)	25.2 µM (inactive)	> 100 µM (inactive)	75.3 µM (inactive)	> 100 µM (inactive)	28.2 µM (inactive)	> 100 µM (inactive)	> 100 µM (inactive)	18 µM (inactive)		> 100 µM (inactive)	27 µM (inactive)	
[O-][n+]1c2c([n+]([O-])c3ccccc31)-c1cccc3cccc-2c13		29 µM (inactive)			> 100 µM (inactive)	> 100 µM (inactive)	> 100 µM (inactive)	63 µM (inactive)		> 100 µM (inactive)		> 100 µM (inactive)	48.1 µM (inactive)	> 100 µM (inactive)	> 100 µM (inactive)	> 100 µM (inactive)			> 100 µM (inactive)	21.2 µM (inactive)
O=C(O)C12CCCC(CCC1)C2	> 100 µM (inactive)	> 100 µM (inactive)	> 100 µM (inactive)	> 100 µM (inactive)	> 100 µM (inactive)	> 100 µM (inactive)	> 100 µM (inactive)	> 100 µM (inactive)	> 100 µM (inactive)	> 100 µM (inactive)	> 100 µM (inactive)		> 100 µM (inactive)	> 100 µM (inactive)	> 100 µM (inactive)		> 100 µM (inactive)	> 100 µM (inactive)		> 100 µM (inactive)
CN(C)/C(=N\C#N)NCc1ccccc1	> 100 µM (inactive)	> 100 µM (inactive)	> 100 µM (inactive)	> 100 µM (inactive)	> 100 µM (inactive)			> 100 µM (inactive)	> 100 µM (inactive)	> 100 µM (inactive)			> 100 µM (inactive)	> 100 µM (inactive)	> 100 µM (inactive)		> 100 µM (inactive)	> 100 µM (inactive)		
CN(C)CCCNC(=O)N/N=C/c1ccccn1		> 10 µM (inactive)		> 10 µM (inactive)	> 10 µM (inactive)	> 10 µM (inactive)	> 10 µM (inactive)	> 10 µM (inactive)	> 10 µM (inactive)	> 10 µM (inactive)	> 10 µM (inactive)	> 10 µM (inactive)	> 10 µM (inactive)	> 10 µM (inactive)			> 10 µM (inactive)	> 10 µM (inactive)	> 10 µM (inactive)	> 10 µM (inactive)
